pKi: −log10 of the molar value.
Experiments:
[1] = molecular target: T1, human adenosine A1 receptors (Homo sapiens, UniProt P30542); assay: Adenosine receptor binding: binding affinities at hA1 receptors ([3H]DPCPX displacement); settings: Table 1; for pKi: [3H]DPCPX displacement, CHO-K1 membranes, read-out: Binding Affinity hA1-Ki; for Binding Selectivity A1/A2a: ratio of Ki values
T1 construct: expressed in transfected cells; host or cells: CHO-K1
T1 sequence (P30542 1-326): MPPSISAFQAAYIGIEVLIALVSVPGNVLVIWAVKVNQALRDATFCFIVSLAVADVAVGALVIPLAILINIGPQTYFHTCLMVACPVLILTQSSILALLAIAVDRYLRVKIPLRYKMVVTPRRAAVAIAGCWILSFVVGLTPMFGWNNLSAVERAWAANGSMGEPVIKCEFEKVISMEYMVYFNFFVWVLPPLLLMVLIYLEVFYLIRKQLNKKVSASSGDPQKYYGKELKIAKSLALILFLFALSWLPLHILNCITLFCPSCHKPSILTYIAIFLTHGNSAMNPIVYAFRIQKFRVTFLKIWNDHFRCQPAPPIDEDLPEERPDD
Protocol: Adenosine Receptor Binding: Binding Affinities at hA1 Receptors
The resultant homogenate was kept for immediate use in the binding.
(§1) Binding assays were performed in a total volume of 250 μL, containing [^3H]-DPCPX (3.0 nM), membranes and additional drugs. Total binding was determined using drug dilution buffer (50 mM Tris-HCl pH:7.5, 10 mM MgCl2, 5% DMSO). Non-specific binding was determined using 300 μM N6-cyclohexyladenosine (CHA). […] Filters were left to dry overnight, and Microscint-0 scintillation fluid was then added to the filters. The filters were then left for at least 2 hours before the radioactivity was assessed using a Canberra Packard TopCount microplate scintillation counter.
To determine the free ligand concentration, three vials were counted with 25 μL of [^3H]DPCPX containing 4 mL of Ultima-Gold MV scintillant on a Beckman LS6500 multi-purpose scintillation counter.
(§2) Data was analysed using a 4 parameter logistical equation and non-linear regression which yields affinity constants (pIC50), and slope parameters:
(§3) [formula] where E is the quantity of binding and [A] is the competitor concentration. The Ki is then determined using the Cheng-Prusoff equation: […]

[2] = molecular target: T2, human adenosine A3 receptors (Homo sapiens, UniProt P0DMS8); assay: Adenosine receptor binding: binding affinities at hA3 receptors ([125I]-AB MECA displacement); settings: Table 1; for pKi: [125I]-AB MECA displacement, CHO-K1 membranes, read-out: Binding Affinity hA3-Ki; for Binding Selectivity A3/A2a: ratio of Ki values
T2 construct: expressed in transfected cells; host or cells: CHO-K1
T2 sequence (P0DMS8 1-318): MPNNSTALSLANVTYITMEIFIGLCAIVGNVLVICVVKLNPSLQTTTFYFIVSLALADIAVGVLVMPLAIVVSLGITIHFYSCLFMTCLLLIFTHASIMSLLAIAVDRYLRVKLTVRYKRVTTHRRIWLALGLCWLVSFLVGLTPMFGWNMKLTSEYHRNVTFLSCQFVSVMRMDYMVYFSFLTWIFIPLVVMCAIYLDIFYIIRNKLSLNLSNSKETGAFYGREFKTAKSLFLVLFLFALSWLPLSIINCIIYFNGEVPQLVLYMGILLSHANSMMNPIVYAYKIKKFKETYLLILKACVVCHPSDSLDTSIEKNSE
Protocol: [formula] Adenosine Receptor Binding: Binding Affinities at hA3 Receptors
The resultant homogenate was kept for immediate use in the binding assay.
Total binding was determined using drug dilution buffer (50 mM Tris-HCl pH 7.5, 10 mM MgCl2, 5% DMSO). Non-specific binding was determined using 10 μM IB-MECA. […] Filters were left to dry overnight, and Microscint-0 scintillation fluid was then added to the filters. The filters were then left for at least 2 hours before the radioactivity was assessed using a Canberra Packard TopCount microplate scintillation counter.
as §2, §3

[3] = molecular target: T3, human adenosine A2A receptors (Homo sapiens, UniProt P29274); assay: Adenosine receptor binding: binding affinities at hA2A receptors ([3H]CGS-21680 displacement); settings: Table 1; [3H]CGS-21680 displacement, HEK-293 membranes; read-out: Binding Affinity hA2A-Ki
T3 construct: host or cells: HEK-293
T3 sequence (P29274 whole entry): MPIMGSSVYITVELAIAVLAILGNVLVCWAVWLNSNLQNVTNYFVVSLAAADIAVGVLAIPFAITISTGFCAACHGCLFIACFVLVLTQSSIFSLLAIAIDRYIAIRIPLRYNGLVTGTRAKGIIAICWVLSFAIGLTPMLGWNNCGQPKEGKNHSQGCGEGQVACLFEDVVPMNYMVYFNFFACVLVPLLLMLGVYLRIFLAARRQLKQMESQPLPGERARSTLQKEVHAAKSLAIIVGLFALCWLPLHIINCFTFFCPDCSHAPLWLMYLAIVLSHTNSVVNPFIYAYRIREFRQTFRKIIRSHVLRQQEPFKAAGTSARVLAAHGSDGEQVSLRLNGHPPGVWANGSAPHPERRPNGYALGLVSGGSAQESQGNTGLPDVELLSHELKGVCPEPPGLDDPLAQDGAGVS
Protocol: Adenosine Receptor Binding: Binding Affinities at hA2A Receptors
as §1, with “The resultant homogenate was kept for immediate use in the binding assay. Binding” for “Binding”, “[^3H]-CGS21680 (20.0” for “[^3H]-DPCPX (3.0”, “pH 7.5,” for “pH:7.5,”, “CHA.” for “N6-cyclohexyladenosine (CHA).”
To determine the free ligand concentration, three vials were counted with 25 μL of [^3H]CGS21680 containing 4 mL of Ultima-Gold MV scintillant on a Beckman LS6500 multi-purpose scintillation counter.
as §2, §3

[4] = molecular target: T4, hA2B receptors (Homo sapiens, UniProt P29275); assay: Adenosine receptor binding: binding affinities at hA2B receptors ([3H]-ZM241385 displacement); settings: Table 1; for pKi: [3H]-ZM241385 displacement, HEK-293 membranes, read-out: Binding Affinity hA2B-Ki; for Binding Selectivity A2b/A2a: ratio of Ki values
T4 construct: host or cells: HEK-293
T4 sequence (P29275 1-332): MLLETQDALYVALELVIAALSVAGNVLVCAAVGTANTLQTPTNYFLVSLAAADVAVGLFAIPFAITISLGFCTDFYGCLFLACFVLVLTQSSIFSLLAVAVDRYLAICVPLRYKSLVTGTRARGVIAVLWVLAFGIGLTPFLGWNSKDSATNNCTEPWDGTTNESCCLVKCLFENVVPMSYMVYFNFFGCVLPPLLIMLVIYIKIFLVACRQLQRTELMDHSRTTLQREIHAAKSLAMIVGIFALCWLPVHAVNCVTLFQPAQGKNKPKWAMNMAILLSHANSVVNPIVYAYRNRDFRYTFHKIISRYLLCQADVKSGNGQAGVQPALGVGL

[5] = test system: haloperidol-induced deficits in locomotor activity in mice; assay: Haloperidol-induced hypolocomotion model (HaloLMA); type: in vivo; settings: female TO mice, intraperitoneal, haloperidol 0.2 mg/kg
Text: Evaluation of Potential Anti-Parkinsonian Activity In Vivo: Haloperidol-Induced Hypolocomotion Model
This approach is also considered a valid method for screening drugs with potential antiparkinsonian effects. Thus, the ability of novel adenosine antagonists to block haloperidol-induced deficits in locomotor activity in mice can be used to assess both in vivo and potential antiparkinsonian efficacy.
Female TO mice (25-30 g) are used for all experiments. Animals are housed in groups of 8 (cage size-40 cm (width) by 40 cm (length) by 20 cm (height)) under 12 hour light/dark cycle (lights on 08:00), in a temperature (20±2° C.) and humidity (55±15%) controlled environment. Animals have free access to food and water, and are allowed at least 7 days to acclimatize after delivery before experimental use.
Liquid injectable haloperidol (e.g., 1 mL Serenance ampoules from Baker Norton, Harlow, Essex, each containing haloperidol BP 5 mg) are diluted to a final concentration of 0.02 mg/mL using saline. Test compounds are typically prepared as aqueous suspensions in 8% Tween. All compounds are administered intraperitoneally in a volume of 10 mL/kg.
1.5 hours before testing, mice are administered 0.2 mg/kg haloperidol, a dose that reduces baseline locomotor activity by at least 50%. Test substances are typically administered 5-60 minutes prior to testing. The animals are then placed individually into clean, clear polycarbonate cages (20 cm (width) by 40 cm (length) by 20 cm (height), with a flat perforated, Perspex lid). Horizontal locomotor activity is determined by placing the cages within a frame containing a 3 by 6 array of photocells linked to a computer, which tabulates beam breaks. Mice are left undisturbed to explore for 1 hour, and the number of beams breaks made during this period serves as a record of locomotor activity which is compared with data for control animals for statistically significant differences.
A number of the exemplified compounds of the present invention were tested in this assay and the results obtained are shown in Table 3, below.

Row | Compound | pKi [1] | Binding Selectivity A1/A2a [1] | pKi [2] | Binding Selectivity A3/A2a [2] | pKi [3] | pKi [4] | Binding Selectivity A2b/A2a [4] | In Vivo activity HaloLMA MED [5] [mg/kg]
1 | Cc1ccc(-c2nc(N)nc3c2nnn3Cc2cccc(C3(O)CCCC3)n2)o1 [Example 3, 7-(5-methylfuran-2-yl)-3-(6-[1-hydroxy-1-cyclopentyl]pyrid-2-ylmethyl)-3H-[1,2,3]triazolo[4,5-d]pyrimidin-5-amine] | 6.44 | 226 | 6.12 | 465 | 8.80 | 6.01 | 602 | 1
2 | Cc1ccc(-c2nc(N)nc3c2nnn3Cc2cccc(CO[C@H]3CCOC3)n2)o1 [Example 1, S-7-(5-methylfuran-2-yl)-3-(6-[tetrahydrofuran-3-yl]oxymethylpyrid-2-ylmethyl)-3H-[1,2,3]triazolo[4,5-d]pyrimidin-5-amine] |  |  |  |  |  |  |  | 0.3
3 | COc1cccc(-c2nc(N)nc3c2nnn3Cc2cccc(C(C)(C)O)n2)c1 [Example 14, 7-(3-methoxyphenyl)-3-(6-[1-hydroxy-1-methylethyl]pyrid-2-ylmethyl)-3H-[1,2,3]triazolo[4,5-d]pyrimidin-5-amine] | 6.30 | 83 | 6.21 | 102 | 8.22 | 6.36 | 73 | 30
4 | Cc1csc(-c2nc(N)nc3c2nnn3Cc2cccc(C3(O)CCCC3)n2)n1 [Example 27, 7-(4-methylthiazol-2-yl)-3-(6-[1-hydroxy-1-cyclopentyl]pyrid-2-ylmethyl)-3H-[1,2,3]triazolo[4,5-d]pyrimidin-5-amine] | 5.76 | 154 | 5.12 | 668 | 7.95 | 5.24 | 510 | 10
5 | Cc1csc(-c2nc(N)nc3c2nnn3Cc2cccc(CO[C@H]3CCOC3)n2)n1 [Example 25, S-7-(4-methylthiazol-2-yl)-3-(6-[tetrahydrofuran-3-yl]oxymethylpyrid-2-ylmethyl)-3H-[1,2,3]triazolo[4,5-d]pyrimidin-5-amine] |  |  |  |  |  |  |  | 3
6 | COCc1cccc(Cn2nnc3c(-c4cccc(C#N)c4)nc(N)nc32)n1 [Example 24, 7-(3-cyanophenyl)-3-(6-[methoxymethyl]pyrid-2-ylmethyl)-3H-[1,2,3]triazolo[4,5-d]pyrimidin-5-amine] |  |  |  |  |  |  |  | 10
7 | Nc1nc(-c2nccs2)c2nnn(Cc3cccc(CO[C@H]4CCOC4)n3)c2n1 [Example 38, S-7-(thiazol-2-yl)-3-(6-[tetrahydrofuran-3-yl]oxymethylpyrid-2-ylmethyl)-3H-[1,2,3]triazolo[4,5-d]pyrimidin-5-amine] | 5.68 | 73 |  |  | 7.55 | 5.53 | 105 | 10
8 | COC(C)(C)OCc1cccc(Cn2nnc3c(-c4ccc(C)o4)nc(N)nc32)n1 [Example 36, 7-(5-methylfuran-2-yl)-3-(6-[1-methoxy-1-methylethyl]oxymethylpyrid-2-ylmethyl)-3H-[1,2,3]triazolo[4,5-d]pyrimidin-5-amine] | 6.38 | 93 | 6.03 | 208 | 8.35 |  |  | 1 to 3
9 | COCc1cccc(Cn2nnc3c(-c4cccc(OC)c4)nc(N)nc32)n1 [Example 18, 7-(3-methoxyphenyl)-3-(6-[methoxymethyl]pyrid-2-ylmethyl)-3H-[1,2,3]triazolo[4,5-d]pyrimidin-5-amine] |  |  |  |  |  |  |  | <30
10 | Nc1nc(-c2ccccc2)c2nnn(Cc3cccc(C4(O)CCCC4)n3)c2n1 [Example 9, 7-phenyl-3-(6-[1-hydroxy-1-cyclopentyl]pyrid-2-ylmethyl)-3H-[1,2,3]triazolo[4,5-d]pyrimidin-5-amine] | 6.15 | 72 |  |  | 8.01 | 5.47 | 347 | 10

Reference: patent publication US11466019B2, “Triazolo[4,5-d] pyramidine derivatives and their use as purine receptor antagonists” (Vernalis (R&D) Limited, priority 2008, dated 2022)
